What was measured:
[1] = Biodistribution blocking experiment with 1000-fold excess of non-radiolabeled peptide; type: in vivo, mice; conditions: female, BALB/c nude, mouse, in vivo, iv, total radioactivity, blocking
Procedure: Then, after 7–11 days, when visible tumor xenografts were formed, groups of 5 mice were injected intravenously via a lateral tail vein with ~0.5 MBq of radiolabeled peptide, corresponding to 20 pmol of peptide, in a total volume of ~150 µL in PBS/0.5% BSA. Using an additional mouse per group, a blocking study was performed by co-injecting a 1000-fold molar excess of the respective peptide analog (20 nmol) together with the radiolabeled peptide. For quantification, a 1:1, 1:10 and 1:50 standard was prepared using aliquots of the injection solution mixed with PBS/0.5% BSA. Mice were euthanized by cervical dislocation 4 h after injection. Subsequently, a blood sample was collected, and different tissues were dissected. All samples, as well as the rest of the body were weighed, and the activity measured in the γ-counter together with the standard. Results were expressed as percentage of injected activity per gram of tissue (%IA/g).

[2] = design: species or system human
Description: Based on these preliminary studies, [^177Lu]Lu-2 was selected for further biodistribution studies evaluating the tumor uptake and tissue distribution for up to 7 days after injection. This study was approved by the Nijmegen Medical Center animal ethics committee (RUDEC) and the Dutch animal ethics committee (CCD) of the Radboud University (2020–0007-020). Female BALB/c nude mice were inoculated with A431-CCK2R cells at an age of 8–10 weeks (n = 20). When tumor xenografts were formed, mice were injected intravenously via a lateral tail vein with ~1 MBq of [^177Lu]Lu-2, corresponding to 20 pmol of peptide, in a total volume of 200 µL in PBS/0.5% BSA. For quantification, a 1% standard was used. […] All collected samples were weighed and measured in the γ-counter together with the standard. Results were expressed as percentage of injected activity per gram of tissue (%IA/g), and tumor-to-organ activity ratios were calculated for selected tissues. For dose-limiting organs, kidneys and stomach, dosimetry estimates were calculated using Olinda-EXM (version 2.2, Vanderbilt University) and standard weights for humans (male and female). For this purpose, the % IA/g determined in mice was extrapolated to humans using the following equation: % IA per organ in humans=[%IA/gin mice×mass of mice (kg)]×(mass of human organ (g)/total body mass of human (kg)) […]

Work on CCCC[C@@H](C(=O)N[C@@H](CC(=O)O)C(=O)N[C@@H](Cc1cccc2ccccc12)C(N)=O)N(C)C(=O)[C@H](Cc1c[nH]c2ccccc12)NC(=O)CCNC(=O)CC(O)CNC(=O)CC(O)CNC(=O)CN1CCN(CC(=O)O)CCN(CC(=O)O)CCN(CC(=O)O)CC1 (stereo partly shown) [[^177Lu]Lu-2, metal not drawn] yielded a tissue uptake at 4 h ([1]; uptake in A431-CCK2R xenograft) of 0.39 %ID/g, a tissue uptake at 4 h ([1]; uptake in A431-mock xenograft) of 0.16 %ID/g and a tissue uptake at 4 h ([1]; uptake in blood) of 0.02 %ID/g. The tissue uptake at 4 h ([1]; uptake in femur) was 0.09 %ID/g, the tissue uptake at 4 h ([1]; uptake in heart) was 0.04 %ID/g and the tissue uptake at 4 h ([1]; uptake in lung) was 0.2 %ID/g. For the same compound, the tissue uptake at 4 h ([1]; uptake in pancreas) was 0.05 %ID/g, the tissue uptake at 4 h ([1]; uptake in stomach) was 0.09 %ID/g and the “cumulative absorbed radiation dose, kidneys” value [2] was less than 5 Gy. For the same compound, the “cumulative absorbed radiation dose, stomach” value [2] was less than 10 Gy.

— publication PMC10058949, “Effect of N-Terminal Peptide Modifications on In Vitro and In Vivo Properties of ^177Lu-Labeled Peptide Analogs Targeting CCK2R” (Pharmaceutics, 2023)
